Measured values: article PMC10060354, “Discovery of a small molecule ligand of FRS2 that inhibits invasion and tumor growth” (Cellular Oncology, 2022)
Read-outs that look alike come from different tables or passages of the source. Blank lines part the entries; values can stand above or below the compound they belong to.

How the values were obtained:
DAOY cells = assay: Spheroid invasion assay (SIA), bFGF-induced collagen I invasion; format: cell-based, human; conditions: for EC50: DAOY cells, n = 3 technical replicas, read-out: EC50 for the inhibition of bFGF-induced collagen I invasion
Description: 1000—2500 cells/well in 100 μl were seeded in 96 well Corning® Spheroid microplate (CLS4520, Sigma-Aldrich) or in cell-repellent 96 well microplate (650,790, Greiner Bio-one). SIA and analysis was performed as described before. In brief: After spheroid formation (24 – 72 h after seeding), 70 µl medium was removed and replaced with the collagen mixture (2.5 mg/ml Pure Col Collagen I (Advanced Biomatrix)), DMEM 1x (from 10 × stock, Sigma, D2429) and 0.4% Sodium bicarbonate (Sigma, S8761)), resulting in a final collagen concentration of 1.75 mg/ml. Embedded spheroids were stimulated with bFGF (100 ng/ml if not otherwise stated), HGF (30 ng /ml) or EGF (20 ng/ml) and distance of invaded cells quantified 24 – 48 h after embedding. Compounds and BGJ398 were added in Dimethylsulfoxid (DMSO) and corresponding DMSO concentrations were used in control samples.

DMS114 = assay: Boyden chamber transwell migration assay; format: cell-based, human; conditions: 24 h
Description: Transwells with 5 μm pore size (83.3932.500; Sarstedt) were coated with 50 µl of 0.06 μg/μl Pure Col Collagen I (5005; Advanced BioMatrix) dissolved in 100% EtOH for a final concentration of 10 μg/cm^2. 10,000 – 15,000 cells were resuspended in serum-free medium or serum-free medium containing the appropriate treatment and seeded in the upper chamber of a 24 well plate containing the coated transwell. The lower chamber was filled with either serum-free medium or serum-free medium with bFGF (25 ng/ml). Transwell migration was allowed for 24 h (DMS114) or 48 h (HCT116) at 37 °C, 5% CO2. Inserts were washed twice with PBS and the remaining non-invading cells on the upper surface of the membrane were removed using a cotton swab. The cells were fixed in 4% paraformaldehyde (28908; Thermo Fisher Scientific) in PBS for 5 min at RT. Fixed cells were washed twice with PBS and stained with DAPI for 15 min at RT. Inserts were washed three times in PBS before images of DAPI-stained nuclei were acquired using a widefield Nikon Ti2 microscope at 40 × magnification. Nuclei were counted on the membrane areas using ImageJ software and plotted on Prism 9 software (GraphPad).

human cancer cell lines = assay: CellTiter-Glo viability (2D culture or 3D spheroids), cell line panel; format: cell-based; conditions: SW780, RT-112, M059K and SKOV3 cells; 2.7 to 20 µM; 48 h
Description: Cell viability was determined using CellTiter-Glo® 2D or 3D cell viability assays (#G9242, #G9682, Promega). 500 cells/25 µl were seeded in flat bottom (#781,091, Greiner bio-one) or U-low adhesion (#4516, Corning) 384-well plate, 24 h prior to treatment. Increasing concentrations of compounds are deposited on cells using a HP Digital Drug Dispenser with DMSO total volume normalization. After 48 h, the CellTiter-Glo® 2D or 3D reagent was added (volume/volume) following manufacturer’s instructions. Plates were incubated at RT (room temperature) under agitation for 30 min and luminescence representing the number of viable cells was quantified with a Cytation 3 imaging reader (BioTek®). Experiments were performed independently three times with three technical replicas each.

[1] = test system: FRS2 (Y436) phosphorylation; assay: Immunoblotting, FRS2 phosphorylation; format: cell-based, human; conditions: RT-112 cells
Description: (§1) Cells were serum starved o.n. and 10 µM compound or 1 µM (BGJ398) were added 3 h before stimulation with 100 ng/ml bFGF for 15 min. Cells were lysed in RIPA buffer containing protease inhibitor cocktail and lysates resolved by SDS-PAGE. Membranes were probed with primary antibodies against phospho-FRS2, FRS2, phospho-ERK1/2, ERK1/2, pAKT, AKT and tubulin. Integrated density of immuno-reactive bands was quantified using Adobe Photoshop CS3. Integrated densities of phospho bands relative to non-phospho bands of same protein were calculated and plotted as fold-change relative to untreated control conditions. Compounds and BGJ398 were added in DMSO and corresponding DMSO concentrations were used in control samples.

ERK (pT202/Y204) = assay: Immunoblotting, ERK phosphorylation; format: cell-based, human; conditions: DAOY, SW780, M059K, SKOV3, AGS, DMS114 and RT-112 cells; 10 µM compound or 1 µM BGJ398
Description: as §1

pFRS2Y436 = assay: IHC of pFRS2Y436 in SKOV3 flank tumor samples; format: in vivo, mice; conditions: SKOV3 model; end of treatment
Description: IHC of tumor sections was performed by Sophistolab (Muttenz, Switzerland) on a Lecia BondMax instrument using Refine HRP-Kits (Leica DS9800). All buffer-solutions were purchased from Lecia Microsystems Newcastle, Ltd and used according to the manufacturer’s guidelines. Paraffin-slides were de-waxed, pre-treated and incubated as follows: ER-solution 2 for 10 min at 95 °C, ER-solution 2 for 20 min at 100 °C and ER-solution 2 for 30 min at 100 °C. pFRS2; Rabbit anti-Phospho FRS2 (PhosphoY 436, Abcam Limited; ab193363), dilution 1:150; phospho-p44/42 MAPK (Erk1/2Thr202/Tyr204) Rabbit mAb (Cell Signaling Technology #4370), dilution 1:1600. The IHC images were captured digitally using a Nikon Epifluorescence Eclipse Ti2 equipped with a Nikon DS-Ri2 color and a Nikon DS-Qi2 monochrome camera.

[2] = Semi-thermodynamic solubility; format: physicochemical; conditions: for solubility: Room Temp, Overnight, LC-MSMS
Description: In vitro ADME-T assays were performed by Cyprotex (Cyprotex Discovery, Cheshire, UK). […] The solution was agitated at ambient temperature overnight. The solutions were then centrifuged for 30 min at 3000 rpm at RT. The supernatant was removed and centrifuged for a further 30 min under the same conditions. An aliquot of the resulting supernatant was diluted in 50% methanol in water (containing an internal standard for MS analysis) prior to analysis by LC–MS/MS. […] These stocks were diluted in 50% methanol in water (containing an internal standard for MS analysis) prior to analysis by LC–MS/MS. The solubility of the shortlisted hits was calculated from a linear or quadratic fit of the standard curve.

[3] = Microsomal metabolic stability; format: in vitro ADME; conditions: human, pooled liver microsomes
Description: Pooled liver microsomes were purchased from Xenotech (H0500) and were stored according to manufacturer’s instructions prior to use. […] A minus co-factor control incubation was included for each compound tested where 0.1 M phosphate buffer pH 7.4 was added instead of NADPH. Two control compounds were included with each species. All incubations were performed singularly for each shortlisted hit. Each compound was incubated for 0, 5, 15, 30 and 45 min. The minus co-factor was incubated for 45 min only. The reactions were stopped by transferring incubate into acetonitrile at the appropriate time points in a 1:3 ratio. The termination plates were centrifuged at 3000 rpm for 20 min at 4 °C to precipitate the protein. Following protein precipitation, the supernatant were combined in cassette of up to 4 compounds, internal standard for MS analysis was added and samples were analyzed using LC–MS/MS. From a plot of In peak area ratio (compound peak area/internal standard peak area) against time, the gradient of the lines were determined. Subsequently, half-life and intrinsic clearance were calculated using the following equations. Eliminationrateconstant(k)=(-gradient)Half-life(t1/2)(min)=0.693/kIntrinsicclearance(CLint)(μl/min/mgprotein)=Vx0.693/t1/2 where V = Incubation volume (µl) / Microsomal protein (mg)

[4] = CaCo-2 permeability (bi-directional); conditions: human
Description: (§2) Caco-2 cells obtained from the ATCC were used between passage numbers 40—60. Cells were seeded onto Millipore Multiscreen Transwell plates at 1 × 10^5 cells/cm^2. The cells were cultured in DMEM and media was changed every two or three days. On day 20, the permeability study was performed. […] Cells were then incubated with HBSS at the desired pH in both apical and basolateral compartments for 40 min to stabilize physiological parameters.
(§3) The fluorescent integrity marker lucifer yellow was also included in the dosing solution. Analytical standards were prepared from test compound DMSO dilutions and transferred to buffer, maintaining a 1% v/v DMSO concentration.
(§4) For assessment of A-B permeability, HBSS was removed from the apical compartment and replaced with test compound dosing solution. The apical compartment insert was then placed into a companion plate containing fresh buffer (containing 1% v/v DMSO). For assessment of B-A permeability, HBSS was removed from the companion plate and replaced with test compound dosing solution. Fresh buffer (containing 1% v/v DMSO) was added to the apical compartment insert, which was then placed into the companion plate.
(§5) Compound permeability was assessed in duplicate. Compounds of known permeability characteristics were run as controls on each assay plate.
(§6) Test and control compounds were quantified by LC–MS/MS cassette analysis using a 7-point calibration with appropriate dilution of the samples. The starting concentration (C0) was determined from the dosing solution and the experimental recovery calculated from C0 and both apical and basolateral compartment concentrations. The integrity of the monolayer throughout the experiment was checked by monitoring lucifer yellow permeation using fluorimetric analysis.
(§7) The permeability coefficient (Papp) for each compound was calculated from the following equation: Papp=dQ/dtC0×A where dQ/dt was the rate of permeation of the drug across the cells, C0 was the donor compartment concentration at time zero and A was the area of the cell monolayer. C0 was obtained from analysis of the dosing solution.
(§8) Efflux ratio (ER) was calculated from mean A-B and B-A data. This was derived from: ER=Papp(B-A)Papp(A-B)

Caco-2 cells = assay: CaCo-2 permeability (bi-directional); conditions: Direction A2B
Description: as §2, §3, §4, §5, §6, §7, §8

[5] = Cell viability (cytotoxicity, MTT) using HepG2; format: cell-based, human; conditions: human, HepG2 cells, 72 h, summary sheet, read-out: MTT (AC50) Conc at which 50% of maximum efficacy is reached
Description: (§9) HepG2 human hepatocellular carcinoma cells were plated on 96-well tissue culture polystyrene plates for 24 h prior to dosing of the cells. The shortlisted hits were diluted in DMSO and serial dilutions are made 1% DMSO in growth media. Compounds at 8 concentrations in triplicate was then incubated for 72 h. Appropriate blanks and controls were run alongside the assay. One h prior to the end of the incubation period, the cells were loaded with MTT [yellow; 3-(4,5-dimethyl-2-thiazolyl)-2,5-diphenyl-2H-tetrazolium bromide], the plates were dried and re-solubilized using DMSO. The plates were then scanned at 570 nm using a plate reader.
(§10) The minimum effective concentration was determined from the lowest concentration whose mean value exceeds the significance level, provided either a clear dose–response relationship was observed, or at least two consecutive concentration points were above the significance level.

[6] = test system: HepG2 human hepatocellular carcinoma cells; assay: Cell viability (cytotoxicity, MTT) using HepG2; format: cell-based
Description: as §9, §10

Structure (SMILES): CCN1CCN(c2ccc(Nc3cc(N(C)C(=O)Nc4c(Cl)c(OC)cc(OC)c4Cl)ncn3)cc2)CC1 [BGJ398, 3-(2,6-Dichloro-3,5-dimethoxy-phenyl)-1-{6-[4-(4-ethyl-piperazin-1-yl)-phenylamino]-pyrimidin-4-yl}-1-methyl-urea, reference compound]
- EC50 (DAOY cells): 470 nM
- EC50 (DAOY cells; Homo sapiens, Daoy): 468 nM
- concentration at which significant reduction of transwell migration was observed (DMS114): 1 µM
- viability (result in words) (human cancer cell lines): reduced viability
- basal and bFGF-induced phosphorylation of FRS2Y436 (result in words) [1]: reduced basal and bFGF-induced phosphorylation
- basal and bFGF-induced phosphorylation of ERK (result in words) (ERK (pT202/Y204)): inhibited basal and bFGF-induced phosphorylation
- pFRS2 Y436 in tumor tissues by IHC (result in words) (pFRS2Y436): No clear difference in pFRS2 Y436

- solubility ([2]; PBS, aqueous buffer, thermodynamic from solid, read-out: Mean Solubility): < 1 µM
- solubility ([2]; PBS, aqueous buffer, thermodynamic from solid, read-out: Solubility Replicate 1): < 1 µM
- solubility ([2]; PBS, aqueous buffer, thermodynamic from solid, read-out: Solubility Replicate 3): < 1 µM
- solubility ([2]; PBS, aqueous buffer, thermodynamic from solid, read-out: Solubility Replicate 4): < 1 µM
- solubility thermodynamic ([2]; aqueous buffer, thermodynamic from solid, PBS, overnight, summary sheet): < 1 µM
- Solubility (class in words) ([2]; summary sheet): Very slightly
- half-life at 1 µM ([3]; pH 7.4, liver microsomes, read-out: t1/2): 2.5 min
- microsomal CLint at 1 µM ([3]; pH 7.4, read-out: Metabolic stability - Intrinsic clearance (CI)): 555 µL/min/mg
- Papp B→A at 120 min, 10 μM ([4]; Caco-2, Mean Papp B-A, Caco-2, summary sheet): 7.53 ×10⁻⁶ cm/s
- recovery at 120 min, 10 µM ([4]; Caco-2, pH 7.4, Mean % Recovery A2B, HBSS/HBSS, pH 7.4/7.4): 51.5%
- recovery at 120 min, 10 µM ([4]; Caco-2, pH 7.4, Mean % Recovery B2A, HBSS/HBSS, pH 7.4/7.4): 14.4%
- Papp B→A at 120 min, 10 μM ([4]; Caco-2, pH 7.4, Mean Papp B2A, HBSS/HBSS, pH 7.4/7.4): 7.53 ×10⁻⁶ cm/s
- Papp B→A at 120 min, 10 μM ([4]; Caco-2, pH 7.4, Papp B2A Replicate 1, HBSS/HBSS, pH 7.4/7.4): 6.28 ×10⁻⁶ cm/s
- Papp B→A at 120 min, 10 μM ([4]; Caco-2, pH 7.4, Papp B2A Replicate 2, HBSS/HBSS, pH 7.4/7.4): 8.78 ×10⁻⁶ cm/s
Structure (SMILES): Oc1cc(Cl)cc2c1NC(c1ccc(Cl)cc1)C1CC=CC21 (centres unmarked) [Compound 12]
- functional activity in SIA (result in words) (DAOY cells; DAOY, bFGF-induced, 1, 5 and 10 µM): reduced invasion comparable to the parent compound 7
- Comments: A2B permeation (result in words) (Caco-2 cells): Test compound not detectable in receiver compartments A2B. High C0 value A2B and B2A. Recovery low B2A. Possible solubility or binding issues. Accuracy of result questionable.
- AC50 at 72 h [5]: 17500 nM
- MEC ([6]; 72h, 3 replicas, NR = No response (Summary sheet)): 9.85 µM
- MTT (MEC) Minimum effective concentration ([6]; 72 h, summary sheet): 9.85 µM
